Data reported in patent US6174921A, “Antitumor compositions and methods of treatment” (priority 1999, dated 2001).
In brackets after ≈: the same amount, converted by molar mass.

Experiments:
6C3HED lymphosarcoma = test: In vivo antitumor activity in C3H mice bearing 6C3HED lymphosarcoma allograft (Gardner lymphosarcoma), oral
Excerpt: A second tumor model employed C3H mice bearing the widely used allograft 6C3HED lymphosarcoma, also known as the Gardner lymphosarcoma (GLS). The 6C3HED lymphosarcoma was obtained from the Division of Cancer Treatment, National Cancer Institute, Tumor Bank, maintained at E. G. and G. Mason Research (Worcester, Mass.).
First passage tumors were stored in liquid nitrogen, using standard techniques. The transplanted tumor was reestablished from the Tumor Bank every six months or as needed. The tumor was maintained by serial passage twice weekly in the host mice.
In the procedures utilized here, the tumor was removed from passage animals and minced into 1- to 3-mm cubic fragments using sterile techniques. Tumor pieces were checked for sterility using both Antibiotic Medium 1 and Brain Heart Infusion (Difco, Detroit, Mich.). The xenograft tumor pieces were implanted into the recipient CD1 Nu/Nu mice subcutaneously in an axillary site by trochar. The allograft 6C3HED tumor pieces were implanted into the recipient C3H mice in an analogous fashion.
Drug therapy on the appropriate schedule was initiated seven days after tumor implantation for the HXGC3 xenograft and the day after tumor implantation for the 6C3HED allograft. The compound being tested was mixed with 2.5% Emulphor EL620 from GAF Corporation (1:40 dilution in 0.9% saline). The total dosage volume for each administration was 0.5 ml. All animals were weighed at the beginning and end of administration of the subject compounds. Food and water were provided ad libitum.
Each control group and each dosage level of the treated groups consisted of 9 or 10 mice selected at random from the pool of implanted animals. The formulations were administered orally by gavage with the use of an 18-gauge needle. Compounds were dosed daily for 10 days for the studies using the human tumor xenografts and 8 days for the studies using the allograft.
The xenograft tumor was measured five days after treatment ended with two dimensional measurements (width and length) of the tumor taken using digital electronic calipers interfaced to a microcomputer. J. F. Worzalla, et al., Investigational New Drugs, 8:241-251 (1990). The allograft was measured in a like manner the day after the dosing schedule ended. Tumor weights were calculated from these measurements using the following formula: [formula]
At least one control group of an equal number of mice was treated with the same volume of 2.5% Emulphor only. The percent inhibition is determined by subtracting the ratio of the mean tumor size of the test group relative to the control group from one and multiplying the result by 100.
The results of several experiments in mice bearing the HXGC3 human colon adenocarcinoma and the 6C3HED lymphosarcoma when the Formula I compounds were administered orally are provided in Table II. In the table, Column 1 refers to the example number of the compound tested; Column 2 describes the particular human tumor xenograft or mouse allograft being studied; Column 3 gives the dosage level of the compound of Formula I in milligrams per kilogram of body weight; Column 4 describes the percent inhibition of tumor growth; and Column 5 tallies the number of mice which died during the course of the experiment relative to the total number of animals in the group.

CCRF-CEM cells = test: In vitro growth inhibition / cytotoxicity against CCRF-CEM human leukemia cells; format: cell-based; conditions: 72 hours of incubation, read-out: IC50 (concentration required for 50% inhibition of growth)
Method: The in vitro data were obtained using CCRF-CEM cells, a human leukemia cell line. Foley et al., Cancer, 18:522 (1965). These cells were grown using standard techniques. See, e.g., G. B. Grindey, et al., Journal of Molecular Pharmacoloy, 16:601 (1979). Dose-response curves were generated for various compounds to determine the concentration required for 50% inhibition of growth (IC50). Cluster plates were prepared in duplicate with the compound at various concentrations. Test compounds were dissolved initially in DMSO at a concentration of 4 mg/ml and further diluted with solvent to the desired concentration. Cells in Roswell Park Memorial Institute 1640 media supplemented with 10% dialyzed fetal bovine serum, and 25 mM HEPES buffer were added to the well at a final concentration of 4.8×10^4 cells/well in a total volume of 2.0 ml. After 72 hours of incubation (95% air, 5% CO2), cell numbers were determined on a ZBI Coulter counter. Cell number for indicated controls at the end of incubation was usually (4-6)×10^5 cells/well. Cell viability was also measured by staining with 3-[4,5-dimethylthiazol-2-yl]-2,5-diphenyl-tetrazolium bromide (MTT) using standard techniques. R. I. Freshney, Culture of Animal Cells: A Manual of Basic Technique, 253-254 (2d ed. 1987).
Column 1 refers to the example number of the compound tested; Column 2 depicts the in vitro cytoxicity against CCRF-CEM cells by relating the concentration of the test compound required for 50% inhibition of growth (IC50) of the cells in the well.

[1] = system: HXGC3 human colon adenocarcinoma xenograft; test: In vivo antitumor activity in CD1 Nu/Nu mice bearing HXGC3 human colon adenocarcinoma xenograft, oral; conditions: daily for 10 days
Method: One of the tumor models used for showing the anti-neoplastic activity of the sulfonylureas of this invention was the human colon xenograft HXGC3. […] This tumor was obtained from St. Jude's Children's Research Hospital and has been widely used as a human tumor model.
The xenograft tumor was measured five days after treatment ended with two dimensional measurements (width and length) of the tumor taken using digital electronic calipers interfaced to a microcomputer. […] Tumor weights were calculated from these measurements using the following formula: [formula]

[2] = 6C3HED, 1200 mg/kg, oral, daily for 8 days, second entry of Example 1

C=Cc1cccc(S(=O)(=O)NC(=O)Nc2ccc(Cl)cc2)c1 [Example 3, N-[[(4-chlorophenyl)amino]carbonyl]-3-(ethenyl)benzenesulfonamide]
Toxic/Total (mice which died / total in group) (6C3HED lymphosarcoma; 6C3HED, 150 mg/kg, oral, daily for 8 days, entry of Example 3): 0/10
Toxic/Total (mice which died / total in group) (6C3HED lymphosarcoma; 6C3HED, 300 mg/kg, oral, daily for 8 days, entry of Example 3): 0/10
Percent Inhibition of tumor growth (6C3HED lymphosarcoma; po, 150 mg/kg, 192 h): 60%
Percent Inhibition of tumor growth (6C3HED lymphosarcoma; po, 300 mg/kg, 192 h): 83%
IC50 (CCRF-CEM cells): 14.4 µg/mL (≈ 42.8 µM)

C=Cc1ccc(S(=O)(=O)NC(=O)Nc2ccc(Cl)c(Cl)c2)cc1 [Example 2, N-[[(3,4-dichlorophenyl)amino]carbonyl]-4-(ethenyl)benzenesulfonamide]
Percent Inhibition of tumor growth ([1]; 150 mg/kg): 93%
Toxic/Total (mice which died / total in group) ([1]; 150 mg/kg): 0/7
Percent Inhibition of tumor growth ([1]; 300 mg/kg): 97%
Toxic/Total (mice which died / total in group) ([1]; 300 mg/kg): 1/7
IC50 (CCRF-CEM cells): 9.3 µg/mL (≈ 25.1 µM)

C=Cc1ccc(S(=O)(=O)NC(=O)Nc2ccc(Cl)cc2)cc1 [Example 1, N-[[(4-chlorophenyl)amino]carbonyl]-4-(ethenyl)benzenesulfonamide]
Toxic/Total (mice which died / total in group) (6C3HED lymphosarcoma; 6C3HED, 37.5 mg/kg, oral, daily for 8 days, second entry of Example 1): 0/10
Toxic/Total (mice which died / total in group) (6C3HED lymphosarcoma; 6C3HED, 75 mg/kg, oral, daily for 8 days, second entry of Example 1): 0/10
Toxic/Total (mice which died / total in group) (6C3HED lymphosarcoma; 6C3HED, 150 mg/kg, oral, daily for 8 days, first entry of Example 1): 0/10
Toxic/Total (mice which died / total in group) (6C3HED lymphosarcoma; 6C3HED, 150 mg/kg, oral, daily for 8 days, second entry of Example 1): 0/10
Toxic/Total (mice which died / total in group) (6C3HED lymphosarcoma; 6C3HED, 300 mg/kg, oral, daily for 8 days, first entry of Example 1): 1/10
Toxic/Total (mice which died / total in group) (6C3HED lymphosarcoma; 6C3HED, 300 mg/kg, oral, daily for 8 days, second entry of Example 1): 1/10
Toxic/Total (mice which died / total in group) (6C3HED lymphosarcoma; 6C3HED, 600 mg/kg, oral, daily for 8 days, second entry of Example 1): 2/10
Percent Inhibition of tumor growth (6C3HED lymphosarcoma; [2]): Toxic
Toxic/Total (mice which died / total in group) (6C3HED lymphosarcoma; [2]): 10/10
Percent Inhibition of tumor growth (6C3HED lymphosarcoma; po, 37.5 mg/kg, 192 h): 34%
Percent Inhibition of tumor growth (6C3HED lymphosarcoma; po, 75 mg/kg, 192 h): 66%
Percent Inhibition of tumor growth (6C3HED lymphosarcoma; po, 600 mg/kg, 192 h): 100%
IC50 (CCRF-CEM cells): 19.8 µg/mL (≈ 58.8 µM)
